This passage reports IC50, melting point and inhibition in vivo results from patent US6525059B1, “Substituted pyrazoles as p38 kinase inhibitors” (G. D. Searle & Company, priority 1998, dated 2003).

The structures appear in SMILES notation. Read-outs that look alike come from different tables or passages of the source. A value given as a limit tells only on which side of the number the result lay.

For data set [1], the system named is TNF a. In words: LPS stimulation of human PBMs, TNF a by ELISA. It is filed as cell-based. The conditions noted are these: LPS-stimulated human PBMs, TNF cell assay; read-out: Human PBM Assay IC50. Here is the method: Human whole blood was collected in Vacutainer tubes containing EDTA as an anticoagulant. A blood sample (7 ml) was carefully layered over 5 ml PMN Cell Isolation Medium (Robbins Scientific) in a 15 ml round bottom centrifuge tube. The sample was centrifuged at 450-500×g for 30-35 minutes in a swing out rotor at room temperature. After centrifugation, the top band of cells were removed and washed 3 times with PBS w/o calcium or magnesium. The cells were centrifuged at 400×g for 10 minutes at room temperature. The cells were resuspended in Macrophage Serum Free Medium (Gibco BRL) at a concentration of 2 million cells/ml.
Compounds were dissolved in DMSO initially and diluted in TCM for a final-concentration of 0.1% DMSO. LPS (Calbiochem, 20 ng/ml, final concentration) was then added at a volume of 0.010 ml. Cultures were incubated overnight at 37° C. Supernatants were then removed and tested by ELISA for TNF a and IL1-b. Viability was analyzed using MTS. After 0.1 ml supernatant was collected, 0.0,20 ml MTS was added to remaining 0.1 ml cells.
Background: An ELISA detects its analyte on a solid surface through an enzyme-linked reagent.

Data set [2] relates to TNF-α. In words: LPS stimulation of TNF production by U937 cells. In kind it is cell-based, human. The conditions noted are these: Homo sapiens, U-937, LPS-stimulated U937 cells. In short, it runs like this:
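PMA-differentiated human U937 cells (20 ng/ml PMA, 24 h, then 24-48 h rest) at 2 million cells/ml, 0.1% DMSO final, stimulated with E. coli LPS (100 ng/ml final) for 4 h at 37° C. TNF-α in medium measured by ELISA; IC50 in μM.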

The target in data set [3] is T1, human p38 kinase alpha (Homo sapiens, UniProt Q16539).
T1 construct: The coding region of the human p38a cDNA was obtained by PCR-amplification from RNA isolated from the human monocyte cell line THP.1; GST (N); made in house; host or cells: E. coli DH10B
In words: p38 kinase in vitro assay, phosphorylation of biotinylated PHAS-I with gamma 32P-ATP. It is filed as biochemical. In short, it runs like this: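 Radiometric filter-capture read-out: streptavidin plates trap biotin-PHAS-I labelled by activated (MKK6) human p38α from γ-32P-ATP. Buffer 25 mM HEPES pH 7.5, 10 mM magnesium acetate, 50 μM cold ATP; reactions 1 h or overnight at 30 °C; inhibitors 10-fold dilutions 100 to 0.001 μM, triplicates, 1% DMSO.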

In data set [4] the target is T2, human GST-p38 kinase alpha (Homo sapiens, UniProt Q16539).
T2 construct: The coding region of the human p38a cDNA was obtained by PCR-amplification from RNA isolated from the human monocyte cell line THP.1; made in house; host or cells: E. coli DH10B
In words: p38 kinase in vitro assay, second format, phosphorylation of EGFRP with 33P-ATP. The conditions noted are these: p38α in vitro, EGFRP assay procedure; read-out: p38^2 IC50. It is filed as biochemical. In short, it runs like this:
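Activated human GST-p38α (pre-activated with GST-MKK6, 1 h, 30 °C) phosphorylates EGFR 21-mer peptide (200 μM) with 50 μM ATP plus γ-33P-ATP, pH 7.5, 60 min at room temperature. Unreacted ATP removed by AG 1×8 resin; supernatant scintillation-counted.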

Data set [5] deals with TNF alpha. In words: Mouse model of LPS-induced TNF alpha production. The conditions noted are these: mouse, oral, 1h before LPS, 30 mpk; read-out: mLPS 1h, 30 mpk percent inhibition. It is filed as in vivo. The method, then: TNF alpha was induced in 10-12 week old BALB/c female mice by tail vein injection with 100 ng lipopolysaccharide (from S. Typhosa) in 0.2 ml saline. One hour later mice were bled from the retroorbital sinus and TNF concentrations in serum from clotted blood were quantified by ELISA.
Efficacy was determined at each time point as percent inhibition of serum TNF levels relative to LPS injected mice that received vehicle only
wherein in the dose is milligram per kilogram (mpk) administered by oral gavage and the predose time indicates the number of hours before LPS challenge when the compound is administered.

The mark [6] stands for this setting: activated human p38 kinase alpha, PHAS-I substrate, 50 μM unlabeled ATP, read-out: p38 kinase IC50.
The mark [7] stands for this setting: p38α in vitro, PHAS-I assay procedure, read-out: p38^1 IC50.

T1 sequence (Q16539 whole entry): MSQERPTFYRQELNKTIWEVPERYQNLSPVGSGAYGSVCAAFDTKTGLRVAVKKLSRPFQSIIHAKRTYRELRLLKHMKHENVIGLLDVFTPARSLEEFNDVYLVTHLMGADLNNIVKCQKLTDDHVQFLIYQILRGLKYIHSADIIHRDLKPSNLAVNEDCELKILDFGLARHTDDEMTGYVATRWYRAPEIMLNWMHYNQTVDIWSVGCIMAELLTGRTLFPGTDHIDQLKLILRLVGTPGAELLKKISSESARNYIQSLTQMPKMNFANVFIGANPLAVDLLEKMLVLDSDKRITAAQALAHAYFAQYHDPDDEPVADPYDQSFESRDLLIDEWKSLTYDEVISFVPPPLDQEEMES
T2 sequence (Q16539 whole entry): as above

What is called IC50 is the concentration that gives 50% inhibition. Turning to `Cc1n[nH]c(-c2ccc(Cl)cc2)c1-c1ccncc1` [Example A-7, 4-(3-(4-chlorophenyl)-5-methyl-1H-pyrazol-4-yl)pyridine], the values for the 50% inhibitory concentration (IC50) in data set [1] and in data set [2] (read-out: U937 Cell Assay IC50) were 200 nM and 201 nM, respectively.

In the case of `Cc1n[nH]c(-c2ccc(-c3ccccc3)cc2)c1-c1ccncc1` [Example A-12, 4-[5-[(1,1′-biphenyl)-4-yl]-3-methyl-1H-pyrazol-4-yl]pyridine], the IC50 in data set [1] came out at 8500 nM.

Usually melting point stands for the temperature, or range, at which the solid turns liquid. The compound `Cc1n[nH]c(-c2ccccc2)c1-c1ccncc1` [Example A-2, 4-(3-methyl-5-phenyl-1H-pyrazol-4-yl)pyridine] returned a melting point of 212 to 214 °C. Also, the half-maximal inhibitory concentration (IC50) in data set [3] (setting [6]) stood at 1500 nM. Further, the IC50 in data set [1] was found to be 1600 nM. In addition, in data set [2] (read-out: U937 Cell Assay IC50), the concentration for half-maximal inhibition (IC50) is 578 nM.

`CN(C)c1n[nH]c(-c2ccc(F)cc2)c1-c1ccncc1` [Example A-19, 5-(4-fluorophenyl)-N, N-dimethyl-4-(4-pyridinyl)-1H-pyrazol-3-amine] showed a melting point of 245 to 247 °C. Further, in data set [1], the concentration for half-maximal inhibition (IC50) was 300 nM. The half-inhibitory concentration (IC50) in data set [2] (read-out: U937 Cell Assay IC50) amounted to 484 nM.

On to `Cc1cccc(-c2[nH]nc(C)c2-c2ccncc2)c1` [Example A-8], for which the IC50 in data set [3] (setting [6]) and in data set [1] was under 100 nM throughout.

`N#Cc1cc(-c2c[nH]nc2-c2ccc(F)cc2)ccn1` [Example A-215, 4-[3-(4-fluorophenyl)-1H-pyrazol-4-yl]-2-pyridinecarbonitrile] showed a melting point of 209.22 °C. Moreover, the 50% inhibitory concentration (IC50) in data set [4] was determined as 2340 nM. Also, the IC50 in data set [2] (read-out: U937 IC50) was 298 nM. For the same compound, the inhibition in vivo at 30 mg/kg in data set [5] is 80%.

As to `Cc1cccc(-c2[nH]nc(C(F)(F)F)c2-c2ccncc2)c1` [Example A-22, 4-[5-(3-methylphenyl)-3-(trifluoromethyl)-1H-pyrazol-4-yl]pyridine], the melting point was in the range of 237 to 239 °C. Moreover, in data set [1], the IC50 was determined as 3200 nM.

`Cc1[nH]nc(-c2ccc(F)cc2)c1-c1ccncc1` [Example 4, 4-[3-(4-fluorophenyl)-5-methyl-1H-pyrazol-4-yl)pyridine]: the values for the half-inhibitory concentration (IC50) in data set [1] and in data set [2] (read-out: U937 Cell Assay IC50) were 100 nM and 222 nM, respectively.

Turning to `Cc1ccc(C)c(-c2[nH]nc(C)c2-c2ccncc2)c1` [Example A-9], the half-maximal inhibitory concentration (IC50) in data set [1] amounted to 400 nM.

For the compound `Fc1ccc(-c2n[nH]cc2-c2ccnc(NC3CCN(Cc4ccccc4)CC3)c2)cc1` [Example A-263, 4-[3-(4-fluorophenyl)-1H-pyrazol-4-yl]-N-[1-(phenylmethyl)-4-piperidinyl]-2-pyridinamine], the IC50 in data set [3] (setting [7]) is under 10 nM; in data set [4], under 100 nM; in data set [2] (read-out: U937 IC50), 543 nM. Also, the inhibition in vivo at 30 mg/kg in data set [5] came out at 49%.

Consider `COc1ccc(-c2[nH]nc(C)c2-c2ccncc2)cc1F` [Example A-1, 4-[5-(3-fluoro-4-methoxyphenyl)-3-methyl-1H-pyrazol-4-yl]pyridine], for which the half-inhibitory concentration (IC50) worked out at 4600 nM in data set [3] (setting [6]) and 500 nM in data set [1].

On to `CCc1[nH]nc(-c2cccc(C)c2)c1-c1ccncc1` [Example A-45], for which the half-maximal inhibitory concentration (IC50) in data set [3] (setting [6]) and in data set [1] was under 100 nM in each case.

Consider `Cc1n[nH]c(-c2cccc(O)c2)c1-c1ccncc1` [Example A-17, 3-[3-methyl-4-(4-pyridinyl)-1H-pyrazol-4-yl]phenol], for which the half-maximal inhibitory concentration (IC50) in data set [1] was determined as 1100 nM.

With `Cc1n[nH]c(-c2ccc3c(c2)OCO3)c1-c1ccncc1` [Example A-10, 4-[5-(1,3-benzodioxol-5-yl)-3-methyl-1H-pyrazol-4-yl]pyridine], the 50% inhibitory concentration (IC50) came to 700 nM in data set [1] and 1690 nM in data set [2] (read-out: U937 Cell Assay IC50).

Turning to `Cc1n[nH]c(C2CCCCC2)c1-c1ccncc1` [Example A-24], the IC50 in data set [1] worked out at 8200 nM.

With `CC[C@H](C)CNc1cc(-c2c[nH]nc2-c2ccc(Cl)cc2)ccn1` [Example A-245, (S)-4-[3-(4-chlorophenyl)-1H-pyrazol-4-yl]-N-(2-methylbutyl)-2-pyridinamine], the half-maximal inhibitory concentration (IC50) in data set [4] is under 1 nM; in data set [2] (read-out: U937 IC50), 33.7 nM. The inhibition in vivo at 30 mg/kg in data set [5] came to 65%.

For the compound `CN(C)CCn1cc(-c2ccncc2)c(-c2ccc(F)cc2)n1` [Example A-261, 3-(4-fluorophenyl)-N,N-dimethyl-4-(4-pyridinyl)-1H-pyrazole-1-ethanamine], the IC50 came to 8 nM in data set [4] and 254 nM in data set [2] (read-out: U937 IC50). The inhibition in vivo at 30 mg/kg in data set [5] was determined as 92%.

Turning to `Cc1n[nH]c(-c2cccc(OCc3ccccc3)c2)c1-c1ccncc1` [Example A-14, 4-[3-methyl-5-[3-(phenylmethoxy)phenyl]-1H-pyrazol-4-yl]pyridine], the concentration for half-maximal inhibition (IC50) in data set [1] stood at 1200 nM.

For `Fc1ccc(-c2nn(CCN3CCOCC3)cc2-c2ccncc2)cc1` [Example A-216, 4-[2-[3-(4-fluorophenyl)-4-(4-pyridinyl)-1H-pyrazol-1-yl]ethyl)morpholine], the half-inhibitory concentration (IC50) in data set [4] stood at 18 nM; in data set [2] (read-out: U937 IC50), 1830 nM. The inhibition in vivo at 30 mg/kg in data set [5] was 91%.

Take `Cn1cc(-c2ccncc2)c(-c2ccc(F)cc2)n1` [Example A-212, 4-[3-(4-fluorophenyl)-1-methyl-1H-pyrazol-4-yl]pyridine]: the results for the 50% inhibitory concentration (IC50) in data set [3] (setting [7]), in data set [4] and in data set [2] (read-out: U937 IC50) were 490 nM, 740 nM and 96.7 nM, respectively. The inhibition in vivo at 30 mg/kg in data set [5] was 93%.

As for `Cc1cnccc1-c1c[nH]nc1-c1ccc(F)cc1` [Example A-258, 4-[3-(4-fluorophenyl)-1H-pyrazol-4-yl]-3-methylpyridine], the IC50 amounted to 480 nM in data set [4] and 1210 nM in data set [2] (read-out: U937 IC50). In addition, the inhibition in vivo at 30 mg/kg in data set [5] was 68%.

With `c1cc(-c2c[nH]nc2-c2ccc3c(c2)OCO3)ccn1` [Example A-228, 4-[3-(1,3-benzodioxol-5-yl)-1H-pyrazol-4-yl]pyridine], the IC50 in data set [3] (setting [7]) worked out at 760 nM; in data set [4], 339 nM; in data set [2] (read-out: U937 IC50) it was 417 nM. Moreover, in data set [5], the inhibition in vivo at 30 mg/kg came to 92%.

For the compound `Cn1nc(-c2ccc(F)cc2)c(-c2ccncc2)c1Br` [Example A-214, 4-[5-bromo-3-(4-fluorophenyl)-1-methyl-1H-pyrazol-4-yl]pyridine], the melting point came out at 174.38 °C. For the same compound, the IC50 in data set [4] is 60 nM. Also, the inhibition in vivo at 30 mg/kg in data set [5] is 70%.

Consider `Cc1n[nH]c(-c2cccc(Oc3ccccc3)c2)c1-c1ccncc1` [Example A-13], for which the IC50 in data set [1] turned out to be 4800 nM.

For `Fc1ccc(-c2n[nH]cc2-c2ccnc(NCCn3ccnc3)c2)cc1` [Example A-268, 4-[3-(4-fluorophenyl)-1H-pyrazol-4-yl]-N-[2-(1H-imidazol-1-yl)ethyl]-2-pyridinamine], the half-maximal inhibitory concentration (IC50) in data set [4] is under 100 nM; in data set [2] (read-out: U937 IC50), 7.4 nM. In addition, the inhibition in vivo at 30 mg/kg in data set [5] turned out to be 11%.
